Testosterone release and insulin release data for one sequence are collected here from patent US20220088121A1, “COMPOSITIONS CONTAINING A PEPTIDE ABLE TO STIMULATE THE GPRC6A-DEPENDENT SIGNALING PATHWAY” (Altergon S.A., priority 2019, published 2022).

Assay [1] deals with MA-10 mouse Leydig cell tumour cell lines. In words: Testosterone release from MA-10 mouse Leydig-cell tumour cell cultures. Format: cell-based. Particulars: experimental models of cell line cultures; Example 1: peptide 10^−6M, 12 hours at 37° C. (FIG. 1).
Protocol: MA-10 mouse Leydig-cell tumour cells, cultured to 90% confluence in 24-well multiwell plates, were stimulated with different agonists for 12 hours at 37° C. under sterile conditions, according to an already validated protocol [Cormier Cell Biol Toxicol. […] The control (CTRL) contained no agonists. The results relate to testosterone release, expressed as ng of testosterone (T) per μg of total protein, obtained from cell extract. […] Significance: *=P<0.05 vs. CTRL.
MA-10 mouse Leydig-cell tumour cells, cultured to 90% confluence in 24-well multiwell plates, were stimulated with different agonists for 12 hours at 37° C. under sterile conditions, according to an already validated protocol [Cormier Cell Biol Toxicol. […] Significance: *, ** and ***=P<0.05, 0.01 and 0.001 respectively vs the baseline control.
Assay [2] relates to INS-1 rat insulinoma cells. Briefly: Insulin release from INS-1 insulinoma cell cultures. The format is cell-based. To be noted: experimental models of cell line cultures.
Protocol: INS-1 rat insulinoma cells, cultured to 90% confluence in 24-well multiwell plates, were stimulated with different combinations of secretagogue agonists for 2 hours at 37° C. under sterile conditions, according to an already validated protocol [Hohmeier Diabetes. […] Stimulation with the phosphodiesterase inhibitor IBMX (Gluc 1 mM+IBMX) represents the maximum secretagogue stimulation and positive control of the experiment. […] Significance: *, ** and ***=P<0.05, 0.01 and 0.001 respectively vs the baseline control.

With NMYLPPVPPPPVVPTF [SEQ ID 1], in assay [1], the testosterone release result was “stimulates”. Besides, the insulin release entry in assay [2] is given as “stimulates”.
